The subject of one series is p53 Y220C mutant. Put plainly: HTRF assay: compounds promoting the binding of p53 Y220C mutant with DNA. It is filed as biochemical. The note with it: His-tagged p53 Y220C (94-312), biotin-labeled DNA. How it is done:
Homogeneous time-resolved fluorescence (HTRF) assay was used to measure the reactivation effect of compounds on the p53 Y220C mutant. The recombinant His-tagged p53 Y220C (94-312) used for HTRF assays was expressed in E. coli and purified to the purity of 90% through Ni-NTA column. The biotin-labeled DNA used for HTRF assays was synthesized by Pharmaron Inc, with the specific sequence of 5'-[…]-3' .
The binding of recombinant His-tagged p53 Y220C protein and biotin-labeled DNA was measured using fluorescence resonance energy transfer (FRET). For FRET assays, binding between p53 mutants and DNA sequences was measured by detecting the fluorescence of the interaction between an anti-His antibody (Cisbio, 61HI2KLA) conjugated to Eu and d2-conjugated streptavidin (Cisbio, 610SADLF) bound to a biotin-labeled DNA molecule. Compounds were prepared into 2 mM stock solutions and serially diluted into 10 concentrations at a 1:3 ratio in DMSO. Each 200-fold working concentration compound was sequentially diluted to 4-fold working concentration. 4 µL of compound solution was transferred line by line to a 384-well assay plate using Echo, containing 2 replicates per column. 4 µL of p53 solution was added to the assay plate. 4 µL of biotin DNA solution was added to the assay plate, and then 4 µL of assay solution (His-Eu antibody and streptavidin-d2) was added to each well of the assay plate. The assay plate was incubated overnight and protected from light. Fluorescence was read on BMG (BMG LRBTECH).
The ratio of each well was calculated (ratio_665 nm/615 nm-ratio_background). The activity % was calculated as follows: C = (Ave_Ac−Ave_Ba)/(Ave_Dc_Ave_Bd) [formula] R data = (A−Ave_Ba−C*D)/(D−Ave_Bd)*(Ave_Dc−Ave_Bd) [formula] Activity % = R data/Ave_VC*100. [formula] • A: fluorescence intensity of the sample at 665 nm; • D: fluorescence intensity of the sample at 615 nm; • Ba: fluorescence intensity of the plate background at 665 nm; • Bd: fluorescence intensity of the plate background at 615 nm; • Dc: fluorescence intensity of HIS-Eu background at 615 nm; • Ac: fluorescence intensity of streptavidin-d2 background at 665 nm; • VC: DMSO treatment group.
SC150 was calculated using Graphpad 8.0 to fit the logarithm of activity% and compound concentration to a nonlinear regression (dose response-variable slope). Table 1: Activity of compounds promoting the binding of p53 Y220C mutant with DNA
On the technique in general: In TR-FRET formats the signal depends on donor and acceptor labels being close together.

The next series relates to CYP3A4/5 enzymes. Put plainly: Multi-concentration inhibitory activity curve of CYP3A4/5 enzymes, liver microsomes. It is filed as in vitro ADME. The note with it: substrate Midazolam; human liver microsomes; 10 min.
Series [1] relates to CYP3A4/5. Put plainly: Inhibition of CYP isoenzymes at a single concentration, liver microsomes. Conditions: final compound concentration 10 µM; substrate Midazolam; human liver microsomes. On the technique in general: Microsomes from liver hold many membrane-bound enzymes, among them those of drug oxidation.
Experimental: (§1) Experimental purpose: To test the inhibitory effect of compounds on CYP isoenzymes at a single concentration. • 2. Experimental instrument and reagents:
(§2) 8.71 g of K2HPO4 was dissolved in 950 mL of water. The pH was adjusted to 7.4 with HCl solution. The mixture was adjusted to a final volume of 1000 mL with water. The buffer was filtered through a 0.45 µm filter. The buffer was stored in a refrigerator at 4°C for future use. Terfenadine/tolbutamide (1 mg/mL each) stock solutions were prepared with DMSO. The above stock solution was diluted with acetonitrile to produce a quenching solution containing 5/10 ng/mL (terfenadine/tolbutamide).
(§3) Liver microsomes were thawed in a 37°C water bath prior to use. Liver microsome working solution (final concentration of 0.5 mg/mL) was prepared. 5 mM NADPH working solution was prepared with phosphate buffered saline. The above stock solution was prepared into a 2 mM working solution with DMSO.
(§4) 238.5 µL of liver microsome working solution was added to a 1.1 mL tube. 1.5 µL of test compound/control working solution/DMSO was added and mixed well by pipetting several times. The mixture was pre-incubated in water bath with shaking at 37°C for 5 minutes. After the pre-incubation, 60 µL of NADPH working solution was added and mixed well by pipetting several times. The mixture was incubated in water bath with shaking at 37°C for 10 minutes. Immediately after incubation, 500 µL of quenching solution was added and vortexed for 1 minute. All samples were centrifuged at 4,000 rpm for 15 minutes at 4°C. 300 µL of the above supernatants were aliquoted for further LC-MS/MS analysis.
(§5) Inhibition rate (% inhibition) is calculated using metabolite formation of the test compound or the control compound compared to the matrix control.
The test system of series [2] is CYP3A4/5. The note with it: human, microsomes, 10 min, 10 µM.
Experimental: as §1, §2, §3, §4, §5

Like-named read-outs stand apart in the source and are kept apart here.

Experimental for CYP3A4/5 enzymes: Experimental purpose: To determine the concentration inhibitory activity curve of compounds on CYP3A4/5 enzymes. • 2.
as §2
Liver microsomes were thawed in a 37°C water bath prior to use. Liver microsome working solution (final system concentration of 0.5 mg/mL) was prepared. 5 mM NADPH working solution was prepared with phosphate buffered saline. The above stock solution was prepared into a 2 mM working solution with DMSO. The above stock solution was diluted with acetonitrile (4-fold dilution, 6 non-zero concentrations).
238.5 µL of liver microsome working solution was added to a 1.1 mL tube. 1.5 µL of test compound/control working solution/DMSO was added and mixed well by pipetting several times. The mixture was pre-incubated in water bath with shaking at 37°C for 5 minutes. […]
The half-maximal inhibitory concentration (IC50) was calculated using Graph Pad Prism.

`COc1nc(C(=O)NS(=O)(=O)C2CC2)ccc1NCC#Cc1cc2c(N[C@@H]3CCN(C)C[C@@H]3F)cccn2c1CC(F)(F)F` [Cpd-7, N-(Cyclopropylsulfonyl)-5-((3-(8-(((3S,4R)-3-fluoro-1-methylpiperidin-4-yl)amino)-3-(2,2,2-trifluoroethyl)indolizin-2-yl)prop-2-yn-1-yl)amino)-6-methoxypicolinamide]: the SC150 in the series with p53 Y220C mutant was determined as 0.64 nM.

In the case of `COc1nc(C(=O)NS(C)(=O)=O)ccc1NCC#Cc1cc2c(N[C@@H]3CCN(C)C[C@@H]3F)cccn2c1CC(F)(F)F` [Cpd-1, 5-((3-(8-(((3S,4R)-3-Fluoro-1-methylpiperidin-4-yl)amino)-3-(2,2,2-trifluoroethyl)indolizin-2-yl)prop-2-yn-1-yl)amino)-6-methoxy-N-(methylsulfonyl)picolinamide], the SC150 in the series with p53 Y220C mutant amounted to 1.0 nM.

On to `[2H]C([2H])([2H])Oc1nc(C(=O)NS(=O)(=O)CC2CC2)ccc1NCC#Cc1cc2c(N[C@@H]3CCN(C)C[C@@H]3F)cccn2c1CC(F)(F)F` [Cpd-5, N-((Cyclopropylmethyl)sulfonyl)-5-((3-(8-(((3S,4R)-3-fluoro-1-methylpiperidin-4-yl)amino)-3-(2,2,2-trifluoroethyl)indolizin-2-yl)prop-2-yn-1-yl)amino)-6-(methoxy-d3)picolinamide], for which the SC150 in the series on p53 Y220C mutant came out at 1.1 nM.

Turning to `[2H]C([2H])([2H])Oc1nc(C(=O)NS(=O)(=O)C2CC2)ccc1NCC#Cc1cc2c(N[C@@H]3CCN(C)C[C@@H]3F)cccn2c1CC(F)(F)F` [Cpd-4, N-(Cyclopropylsulfonyl)-5-((3-(8-(((3S,4R)-3-fluoro-1-methylpiperidin-4-yl)amino)-3-(2,2,2-trifluoroethyl)indolizin-2-yl)prop-2-yn-1-yl)amino)-6-(methoxy-d3)picolinamide], the SC150 with p53 Y220C mutant was 0.35 nM.

As usually defined, the IC50 is the concentration at which inhibition is half-maximal. Lower therefore signals inhibition by little substance. `CNC(=O)c1ccc(NCC#Cc2cc3c(N[C@@H]4CCN(C)C[C@@H]4F)cccn3c2CC(F)(F)F)c(OC)c1` [Cpd-C, 4-((3-(8-(((3S,4R)-3-Fluoro-1-methylpiperidin-4-yl)amino)-3-(2,2,2-trifluoroethyl)indolizin-2-yl)prop-2-yn-1-yl)amino)-3-methoxy-N-methylbenzamide]: inhibition with CYP3A4/5 enzymes was half-maximal at 3.8 µM (IC50). Also, the “Inhibition rate (%) CYP3A4/5 (Midazolam)” value with CYP3A4/5 [1] stood at 79%. In addition, the SC150 in the series on p53 Y220C mutant is on record as 4.6 nM.

`[2H]C([2H])([2H])Oc1nc(C(=O)NS(=O)(=O)CC(F)(F)F)ccc1NCC#Cc1cc2c(N[C@@H]3CCN(C)C[C@@H]3F)cccn2c1CC(F)(F)F` [Cpd-6, 5-((3-(8-(((3S,4R)-3-Fluoro-1-methylpiperidin-4-yl)amino)-3-(2,2,2-trifluoroethyl)indolizin-2-yl)prop-2-yn-1-yl)amino)-6-(methoxy-d3)-N-((2,2,2-trifluoroethyl)sulfonyl)picolinamide] yielded an SC150 with p53 Y220C mutant of 1.7 nM.

On to `COc1nc(C(=O)NS(C)(=O)=O)ncc1NCC#Cc1cc2c(N[C@@H]3CCN(C)C[C@@H]3F)cccn2c1CC(F)(F)F` [Cpd-3, 5-((3-(8-(((3S,4R)-3-Fluoro-1-methylpiperidin-4-yl)amino)-3-(2,2,2-trifluoroethyl)indolizin-2-yl)prop-2-yn-1-yl)amino)-4-methoxy-N-(methylsulfonyl)pyrimidine-2-carboxamide], for which the SC150 in the series with p53 Y220C mutant came out at 0.74 nM.

As to `COc1cc(S(C)(=O)=O)ccc1NCC#Cc1nc2c(N[C@@H]3CCN(C)C[C@@H]3F)cccn2c1CC(F)(F)F` [Cpd-B], in the series on CYP3A4/5 [2], the “Inhibition rate (%) CYP3A4/5 (Midazolam)” value turned out to be 61% and the “Inhibition rate (%) CYP3A4/5 (Testosterone)” value is 75%. The compound also showed an SC150 in the series on p53 Y220C mutant of 15 nM.

Values taken from patent publication EP4796540A2, “N-SULFONAMIDE NITROGEN-CONTAINING FUSED HETEROCYCLIC COMPOUND, AND APPLICATION THEREOF” (priority 2023, dated 2025).
